Values of other authors, collected in patent US5017369A, “Film-forming teat sealer for prevention of mastitis and use thereof” (priority 1989, dated 1991).

Conditions: gluconate salt dissolved in water

SMILES: N=C(NCCCCCCNC(=N)NC(=N)Nc1ccc(Cl)cc1)NC(=N)Nc1ccc(Cl)cc1 [chlorhexidine gluconate, bis(p-chlorophenyl-diguanido)hexane]
- pH of water solutions: ~7.0
